The values below are quoted from earlier work in paper PMC8043539 (Journal of Enzyme Inhibition and Medicinal Chemistry, 2021).

The target of this series is Sapp1p. The conditions noted are these: inhibition of Sapp1p from C. parapsilosis.
On to `COC(=O)[C@H](C)NC(=O)C[C@H](O)[C@H](Cc1ccccc1)NC(=O)[C@@H](NC(=O)[C@@H](NC(=O)OC(C)(C)C)C(C)C)C(C)C` [KB74, tert-butyl-oxycarbonyl-valine-valine-phenylstatine-alanine-OMe], for which the Ki was 14.6 nM.
For “isovaleric acid-valine-valine-statine-alanine-statine [Pepstatin A, reference compound]”, the Ki was 0.3 nM.
For `CC(C)[C@H](NC(=O)OC(C)(C)C)C(=O)N[C@H](C(=O)N[C@@H](Cc1ccccc1)[C@@H](O)CC(=O)N[C@@H](C)C(=O)N[C@@H](Cc1ccccc1)[C@@H](O)CC(N)=O)C(C)C` [KB70, tert-butyl-oxycarbonyl-valine-valine-phenylstatine-alanine-phenylstatine-NH2], the Ki is 0.1 nM.
